From patent US7423068B2, “Control of parasitic mites of honey bees” (The United States of America as represented by the …, priority 2001, dated 2008)
Where two headings read alike, the source gives them in different places.

What was measured:
[1] = test system: free-running adult mites
Method: 2-Heptanone was tested for miticidal activity in two separate sets of bioassays. In the petri dish bioassays we exposed free-running adult mites to volatiles from 2-heptanone either in pure form or in an acrylic block dispenser (as described in a further experiment, below) and measured mortality over time. Mites were placed in petri dishes (5-10 mites/dish, 4 dishes per treatment and 4 dishes for controls) that were lined on the bottom with damp tissue paper covered with Parafilm®. Holes were punched in the Parafilm® using an insect pin to create a humid environment in the petri dish. A piece of filter paper the same size as the petri dish was placed on top of the Parafilm® sheet. In the first petri dish bioassay, 40 μl of pure 2-heptanone was placed on a piece of filter paper on the lid of the petri dish (treatment dishes). The Control dishes were set up as described above but nothing was added to the piece of filter paper fastened to the lid of the petri dish. The petri dishes were placed in separate incubators for treatments and Controls. Incubator temperatures were maintained at 33-34.4° C. […] In the second bioassay 0.1 g of a 30% concentration of 2-heptanone in acrylic block made as in Example 6 was placed in a plastic weighing boat in the center of petri dishes prepared as described above. Control petri dishes were prepared identically to those containing the acrylic block, but the weighing boat in the center of the dish was empty.
In another series of tests, 2-heptanone, 98+% (Sigrma-Aldrich); 3-heptanone (Fluka Chemika); 4-heptanone (Fluka Chemika); 2-hexanone; 2-octanone, 98% (Aldrich Chemical Co.); 1-heptanol (Fluka Chemika, 99.5% GC), and heptaldehyde, 95% (Aldrich Chemical Co.) were tested in petri dish bioassays wherein free-running adult mites were exposed to 40 μl of pure compound placed on filter paper as described above. The test conditions and Controls were as described above.
The test conditions and Controls were as described above.

[2] = cited from earlier work
[3] = 40 μl pure compound on filter paper, exposure time 1 hr, S.E. ± 0 unless noted
[4] = 40 μl pure compound on filter paper, exposure time 2 hrs, S.E. ± 0 unless noted

SMILES | Average % Mortality ± S.E. Treatment [1, 3] | Average % Mortality ± S.E. Treatment [1, 4] | % Mortality Treatment ([1]; in vivo) | further results
C=C(C)C1CC=C(C)CC1 (single isomer, unassigned; (+)) [d-Limonene, (+)-4-isopropenyl-1-methyl-1-cyclohexene] | 5.0 ± 5.0% | 55.0 ± 9.57% |  | 
CCCCCCC=O [Heptaldehyde] |  |  | 100% | 
CC(C)=O [Acetone] | 48 ± 8.65% | 81.2 ± 12.0% |  | solubility in water ([2]; in words): miscible with water
CCCCC(C)=O [2-Hexanone] |  |  |  | % Mortality Treatment ([1]; 40 μl pure compound on filter paper, exposure time 1 hr): 100%
O=Cc1ccccc1 [Benzaldehyde] | 55 ± 12.6% | 100% |  | solubility in water [2]: about 350 parts water
CCCC(C)=O [2-Pentanone] |  |  |  | solubility in water ([2]; in words): almost insoluble in water
CCCC(=O)CCC [4-Heptanone] |  |  | 100% | 
CCC(C)=O [2-Butanone] | 87.5 ± 7.22% | 77.3 ± 15.6% |  | 
CCCCCCC(C)=O [2-Octanone] |  |  | 100% | 
CCCCC(=O)CC [3-Heptanone] |  |  | 100% | 
CCCC(=O)OCC [Ethyl Butyrate, Ethyl butyrate] |  |  |  | Average % Mortality ± S.E. Treatment ([1]; in vivo): 81.2 ± 12.0%; solubility in water [2]: about 150 parts water
